Values quoted from earlier work in patent US11154521B2 (Acer Therapeutics Inc., priority 2016, dated 2021).

Assays:
torsinA = details: Cho et al. PLoS One 2014
[1] = tested on: cultured human muscle fibers; details: Nogalska et al. 2014
[2] = healthy adults

γ-secretase activity [1]	mean terminal half-life [2] [min]	Compound	ER stress and inhibited cAMP response to forskolin induced by torsinA mutation (torsinA)	proinflammatory molecules and reactive oxygen species (ROS) (activated glial cells)	Aβ42 and its oligomers [1]	lysosomal activity [1]	muscle-fiber vacuolization [1]
		O=C(O)CCCc1ccccc1 [4-phenylbutyrate]	corrected				
decrease	48	sodium phenylbutyrate		suppress	decrease	improve	prevent
